Tests used:
Assay type in all cases: functional
[1] = system: SW-620; assay: Cytotoxicity against human SW620 cells assessed as cell growth level at 100 uM after 48 hrs by sulforhodamine B assay
[2] = system: A549; assay: Cytotoxicity against human A549/ATCC cells assessed as cell growth level at 10 uM after 48 hrs by sulforhodamine B assay
[3] = system: CCRF-CEM; assay: Cytotoxicity against human CCRF-CEM cells assessed as cell growth level at 100 uM after 48 hrs by sulforhodamine B assay
[4] = system: HCC 2998; assay: Cytotoxicity against human HCC2998 cells assessed as cell growth level at 10 nM after 48 hrs by sulforhodamine B assay
[5] = system: U-251; assay: Cytotoxicity against human U251 cells after 48 hrs by sulforhodamine B assay; conditions: U-251, 48 h
[6] = system: UACC-257; assay: Cytotoxicity against human UACC257 cells assessed as cell growth level at 1 uM after 48 hrs by sulforhodamine B assay
[7] = system: UO-31; assay: Cytotoxicity against human UO31 cells after 48 hrs by sulforhodamine B assay; conditions: UO-31, 48 h
[8] = system: K562; assay: Cytotoxicity against human K562 cells assessed as cell growth level at 10 uM after 48 hrs by sulforhodamine B assay
[9] = system: OVCAR-5; assay: Cytotoxicity against human OVCAR5 cells after 48 hrs by sulforhodamine B assay; conditions: OVCAR-5, 48 h
[10] = system: UO-31; assay: Cytotoxicity against human UO31 cells assessed as cell growth level at 10 uM after 48 hrs by sulforhodamine B assay
[11] = system: IGROV-1; assay: Cytotoxicity against human IGROV1 cells assessed as cell growth level at 10 uM after 48 hrs by sulforhodamine B assay
[12] = system: MDA-MB-468; assay: Cytotoxicity against human MDA-MB-468 cells assessed as cell growth level at 100 uM after 48 hrs by sulforhodamine B assay
[13] = system: MCF7; assay: Cytotoxicity against human MCF7 cells assessed as cell growth level at 100 nM after 48 hrs by sulforhodamine B assay
[14] = system: COLO 205; assay: Cytotoxicity against human COLO205 cells assessed as cell growth level at 100 uM after 48 hrs by sulforhodamine B assay
[15] = system: BT-549; assay: Cytotoxicity against human BT549 cells assessed as cell growth level at 100 uM after 48 hrs by sulforhodamine B assay
[16] = system: KM12; assay: Cytotoxicity against human KM12 cells assessed as cell growth level at 100 nM after 48 hrs by sulforhodamine B assay
[17] = system: NCI-H226; assay: Cytotoxicity against human NCI-H226 cells after 48 hrs by sulforhodamine B assay; conditions: NCI-H226, 48 h
[18] = system: Malme-3M; assay: Cytotoxicity against human MALME-3M cells assessed as cell growth level at 100 nM after 48 hrs by sulforhodamine B assay
[19] = system: HCT-15; assay: Cytotoxicity against human HCT15 cells assessed as cell growth level at 1 uM after 48 hrs by sulforhodamine B assay
[20] = system: MCF7; assay: Cytotoxicity against human MCF7 cells assessed as cell growth level at 10 uM after 48 hrs by sulforhodamine B assay
[21] = system: MDA-MB-231; assay: Cytotoxicity against human MDA-MB-231/ATCC cells assessed as cell growth level at 10 uM after 48 hrs by sulforhodamine B assay
[22] = system: HL-60(TB); assay: Cytotoxicity against human HL-60(TB) cells assessed as cell growth level at 100 nM after 48 hrs by sulforhodamine B assay
[23] = system: MDA-MB-468; assay: Cytotoxicity against human MDA-MB-468 cells assessed as cell growth level at 10 uM after 48 hrs by sulforhodamine B assay
[24] = system: K562; assay: Cytotoxicity against human K562 cells assessed as cell growth level at 100 nM after 48 hrs by sulforhodamine B assay
[25] = system: KM12; assay: Cytotoxicity against human KM12 cells after 48 hrs by sulforhodamine B assay; conditions: KM12, 48 h
[26] = system: HOP-92; assay: Cytotoxicity against human HOP92 cells assessed as cell growth level at 10 uM after 48 hrs by sulforhodamine B assay
[27] = system: HT-29; assay: Cytotoxicity against human HT-29 cells assessed as cell growth level at 100 uM after 48 hrs by sulforhodamine B assay
[28] = system: OVCAR-3; assay: Cytotoxicity against human OVCAR3 cells assessed as cell growth level at 10 nM after 48 hrs by sulforhodamine B assay
[29] = system: SNB-75; assay: Cytotoxicity against human SNB75 cells assessed as cell growth level at 10 uM after 48 hrs by sulforhodamine B assay
[30] = system: SK-OV-3; assay: Cytotoxicity against human SKOV3 cells assessed as cell growth level at 10 nM after 48 hrs by sulforhodamine B assay
[31] = system: SF-539; assay: Cytotoxicity against human SF539 cells assessed as cell growth level at 10 uM after 48 hrs by sulforhodamine B assay
[32] = system: UO-31; assay: Cytotoxicity against human UO31 cells assessed as cell growth level at 10 nM after 48 hrs by sulforhodamine B assay
[33] = system: RPMI-8226; assay: Cytotoxicity against human RPMI8226 cells assessed as cell growth level at 1 uM after 48 hrs by sulforhodamine B assay
[34] = system: SR; assay: Cytotoxicity against human SR cells assessed as cell growth level at 100 nM after 48 hrs by sulforhodamine B assay
[35] = system: 786-0; assay: Cytotoxicity against human 786-0 cells after 48 hrs by sulforhodamine B assay; conditions: 786-0, 48 h
[36] = system: SK-MEL-2; assay: Cytotoxicity against human SK-MEL-2 cells assessed as cell growth level at 100 nM after 48 hrs by sulforhodamine B assay
[37] = system: Malme-3M; assay: Cytotoxicity against human MALME-3M cells assessed as cell growth level at 10 uM after 48 hrs by sulforhodamine B assay
[38] = read-out: LC50 (the source's name)
[39] = read-out: pLC50 (the source's name) (converted)

Q: What does the source list for `O=c1oc2ccccc2cc1-c1csc(N/N=C/c2c[nH]c3ccccc23)n1`?
A: Activity [1]: -7%; Activity [2]: -30.98%; Activity [3]: -39%; Activity [4]: 99%; GI50 ([5]; read-out: GI50): 1.75 µM; CC50 [5, 38]: 77.7 µM; TGI ([5]; read-out: TGI): 5.6 µM; GI50 ([5]; read-out: pGI50 (converted)): 1.74 µM; CC50 [5, 39]: 77.6 µM; TGI ([5]; read-out: pTGI (converted)): 5.62 µM; Activity [6]: 82%; GI50 ([7]; read-out: GI50): 0.76 µM; CC50 [7, 38]: 5.47 µM; TGI ([7]; read-out: TGI): 2.23 µM; GI50 ([7]; read-out: pGI50 (converted)): 0.759 µM; CC50 [7, 39]: 5.5 µM; TGI ([7]; read-out: pTGI (converted)): 2.24 µM; Activity [8]: 0.99%; GI50 ([9]; read-out: GI50): 2.34 µM; CC50 [9, 38]: > 100 µM; TGI ([9]; read-out: TGI): 7.8 µM; GI50 ([9]; read-out: pGI50 (converted)): 2.34 µM; CC50 [9, 39]: > 100 µM; TGI ([9]; read-out: pTGI (converted)): 7.76 µM; Activity [10]: -90.51%; Activity [11]: 0.26%; Activity [12]: -39%; Activity [13]: 95%; Activity [14]: -36%; Activity [15]: -88%; Activity [16]: 98%; GI50 ([17]; read-out: GI50): 2.38 µM; CC50 [17, 38]: > 100 µM; TGI ([17]; read-out: TGI): 7.7 µM; GI50 ([17]; read-out: pGI50 (converted)): 2.4 µM; CC50 [17, 39]: > 100 µM; TGI ([17]; read-out: pTGI (converted)): 7.76 µM; Activity [18]: 94%; Activity [19]: 84%; Activity [20]: 8.91%; Activity [21]: -37.04%; Activity [22]: 97%; Activity [23]: 2.39%; Activity [24]: 110%; GI50 ([25]; read-out: GI50): 1.86 µM; CC50 [25, 38]: 9.22 µM; TGI ([25]; read-out: TGI): 4.14 µM; GI50 ([25]; read-out: pGI50 (converted)): 1.86 µM; CC50 [25, 39]: 9.12 µM; TGI ([25]; read-out: pTGI (converted)): 4.17 µM; Activity [26]: -14.45%; Activity [27]: -81%; Activity [28]: 99%; Activity [29]: 15.44%; Activity [30]: 94%; Activity [31]: 0.41%; Activity [32]: 97%; Activity [33]: 48%; Activity [34]: 102%; GI50 ([35]; read-out: GI50): 1.35 µM; CC50 [35, 38]: > 100 µM; TGI ([35]; read-out: TGI): 4.09 µM; GI50 ([35]; read-out: pGI50 (converted)): 1.35 µM; CC50 [35, 39]: > 100 µM; TGI ([35]; read-out: pTGI (converted)): 4.07 µM; Activity [36]: 95%; Activity [37]: -10.02%

— ChEMBL document CHEMBL3580659, “One-pot multicomponent synthesis of indole incorporated thiazolylcoumarins and their antibacterial, anticancer and DNA cleavage studies” (2015)
